The record followed here is ChEMBL document CHEMBL4433222, “Treatment of Alzheimer's by PROTAC-Tau Protein Degradation” (ACS Med Chem Lett, 2019).

A short description of this data set: Half life in CD1 mouse brain at 30 mg/kg, ip by LC-MS/MS analysis. It counts as ADME, organism-based.

As usually defined, the half-life is how long it takes for the measured level to halve. Read a low half-life as rapid decline. `O=C(CCc1ccc2c(c1)[nH]c1ccncc12)NCCOCCOCCNc1cccc2c1C(=O)N(C1CCC(=O)NC1=O)C2=O` (stereo unspecified) gave a half-life of 46 min.
